Values after ≈ are worked out from the molar mass of the structure shown.
Experiments:
Format in all cases: functional
[1] = tested on: Spodoptera exigua; test: Insecticidal activity against Spodoptera exigua F22 neonate larvae assessed as mortality at 27 +/- 1 degC, 60 to 70% RH measured after 72 hr; details: F22, 72 h
[2] = tested on: Spodoptera exigua; test: Insecticidal activity against susceptible strain Spodoptera exigua SS neonate larvae assessed as mortality at 27 +/- 1 degC, 60 to 70% RH measured after 72 hr
[3] = tested on: Spodoptera exigua; test: Insecticidal activity against Spodoptera exigua F11 neonate larvae assessed as mortality at 27 +/- 1 degC, 60 to 70% RH measured after 72 hr; details: F11, 72 h
[4] = tested on: Spodoptera exigua; test: Resistance factor, LC50 for Spodoptera exigua F22 neonate larvae to LC50 for Spodoptera exigua SS neonate larvae
[5] = tested on: Spodoptera exigua; test: Resistance factor, LC50 for Spodoptera exigua F11 neonate larvae to LC50 for Spodoptera exigua F0 neonate larvae
[6] = tested on: Spodoptera exigua; test: Resistance factor, LC50 for Spodoptera exigua F11 neonate larvae to LC50 for Spodoptera exigua SS neonate larvae
[7] = tested on: Spodoptera exigua; test: Resistance factor, LC50 for Spodoptera exigua F22 neonate larvae to LC50 for Spodoptera exigua F0 neonate larvae
[8] = tested on: Spodoptera exigua; test: Insecticidal activity against Spodoptera exigua F0 neonate larvae assessed as mortality at 27 +/- 1 degC, 60 to 70% RH measured after 72 hr; details: F0, 72 h
[9] = tested on: Spodoptera exigua; test: Resistance factor, LC50 for Spodoptera exigua F0 neonate larvae to LC50 for Spodoptera exigua SS neonate larvae

Compound: CNC(=O)c1cc(Cl)cc(C)c1NC(=O)c1cc(Br)nn1-c1ncccc1Cl [CHLORANTRANILIPROLE]
- LC50 [1]: 1.88 µg/mL (≈ 3.9 µM)
- LC50 [2]: 0.0137 µg/mL (≈ 0.0284 µM)
- LC50 [3]: 0.78 µg/mL (≈ 1.61 µM)
- RatioLC50 [4]: 137.4
- RatioLC50 [5]: 5
- RatioLC50 [6]: 56.9
- RatioLC50 [7]: 12
- LC50 [8]: 0.157 µg/mL (≈ 0.325 µM)
- RatioLC50 [9]: 11.4

— ChEMBL document CHEMBL3045172, “Assessment of resistance risk in Spodoptera exigua (Hübner) (Lepidoptera: Noctuidae) to chlorantraniliprole” (2011)
